Data: patent publication US9572760B2, “Uses of compounds and mixtures from Antrodia cinnamomea mycelia” (Simpson Biotech Co., Ltd., priority 2013, dated 2017)

Assays:
Mouse primary HSC = assay: Profibrogenic gene expression in primary hepatic stellate cells (qRT-PCR); type: cell-based; conditions: for Collagen-1 expression / TGF-β expression / TIMP-1 expression / αSMA expression: two concentrations, 72 hrs
Excerpt: The AML12 (mouse hepatocyte) cells were obtained from the BCRC (Bioresource Collection and Research Center) and cultured in Dulbecco's modified Eagle media (DMEM, Gibco by Invitrogen) with 1% antibiotic antimycotic (Gibco by Invitrogen) and 15% fetal bovine serum (Gibco by Invitrogen). The human Hepatic Stellate Cell, HSC cell line was obtained from the ScienCell Research Laboratory (USA) and cultured in complete medium, Stellate Cell Medium (ScienCell Research Laboratory) with 2% fetal bovine serum (ScienCell Research Laboratory), 1% stellate cell growth supplement (ScienCell Research Laboratory) and 1% penicillin/streptomycin solution (ScienCell Research Laboratory). It is well known that TGF-β1 can activation of HSC, which was used as a positive control, the HSC cells were seeded in plate for 24 h and then the cells were replaced with medium containing 10 ng TGF-β1 (PeproTech, USA). For primary hepatic stellate cell isolation, C57BL/6 mice were anesthetized by intraperitoneal injection of ketamine and xylazine. […] Mouse livers were perfused in situ with 0.5 mM EGTA containing calcium-free salt solution (8 ml/min, 37° C. for 5 minutes), followed by perfusion with 2-step 0.05% collagenase D and pronase containing buffer (Roche Molecular Biochemicals, Indianapolis, Ind.) for 5 and 10 minutes, respectively. The harvested liver was minced gently on a Petri dish and additional incubation with protease containing buffer at 37° C. for 25 minutes. Then, the liver was filtered with 70 μm cell strainer. Cells were centrifuged and collected followed by 8.2% Nycodenz (Accurate Chemical and Scientific Corp.). The cell lines were cultured at 37° C. in a humidified atmosphere containing 5% CO2.
Exponentially growing cells were harvested and seeded in a 6-well microtiter plate. Each well of cells were collected to eppendrof in 1 mL of TRIzol buffer (Invitrogen, Carlsbad, Calif., USA), and then mixed with 0.5 mL chloroform/isoamyl alcohol (24:1), eppendrofs were centrifuged at 12,000×g for 10 min at 4° C. The supernatant was transferred to a fresh tube, and isopropanol was added, mix well and stored at −80° C. overnight. The reaction mixture was centrifuged at 12,000×g for 30 min at 4° C. to produce a rude RNA pallet, the pellet was washed with 70% ethanol and air-dried. The concentrations of total RNA were measured by absorbance at 260 nm using a NanoDrop ND-1000 (NanoDrop, USA).
Reverse transcription reaction was performed using a commercially available set of High Capacity RNA-to-cDNA Kit (Applied Biosystems, USA). cDNA was prepared from 2 μg of total RNA per 20 μl reaction, according to the manufacturer's instructions—37° C. for 60 minutes, 95° C. for 5 minutes, and hold at 4° C. The resulting cDNA was to a final concentration of 100 ng/μl and constituted a matrix in further experiments.
Amplification and detection the gene expression by real-time PCR were performed using StepOne plus Real-time PCR System (Applied Biosystems, USA). Samples were assayed in a 10 μl reaction mixture containing 2 μl of template DNA, 5 μl of 2× TaqMan PCR Master Mix (Applied Biosystems, Life Technologies, Foster City, Calif., USA), 0.5 μl of 20× assay mix containing probe, forward and reverse primer (Applied Biosystems, Life Technologies, Foster City, Calif., USA), whereby qPCR targets with the following information were used: (a) α-SMA, Assay ID Rn01759928_g1, (b) TIMP-1, Assay ID Rn00587558_m1, (c) TGF-β1, Assay ID Rn00572010_m1, (d) Collagen I, Assay ID Rn 01463838_m1, (e) GAPDH, Assay ID Rn1462662_g1. To control variation in mRNA concentration, all results were normalized to the housekeeping gene, GAPDH. Relative quantitation was performed using the comparative ΔΔCt method according to the manufacturer's instructions. The cycling conditions used were as follows: 50° C. for 2 min, 95° C. for 10 min followed by 40 cycles of 95° C. for 15 s and 60° C. for 1 min each. […]

α-SMA and TGF-β1 = assay: Western blot of α-SMA and TGF-β1 in rabbit ear scar tissue; type: in vivo, New Zealand white rabbits; conditions: 1% w/v topical; for level of TGF-β1 expression (Western blot): day 14, compared with the control groups; for levels of α-SMA expression (Western blot): relative to the control group
Description: The rabbit ear model of hypertrophic scarring was established. In brief, 12 New Zealand white rabbits, weighing 2.5 to 3.0 kg, were prepared for wounding under sterile conditions. Four 1 cm full thickness circular wounds were created down to the cartilage on the ventral side of each ear using a 1 cm punch biopsy. The perichondrial membrane was then dissected off the cartilage using a surgical blade. The test agents including compound B, C and ACM ethanol extract were applied to the wounds of the experimental group ([…] to each wound) every day in concentrations of 1% w/v for 14 days, while the control group received equal amounts of 1% w/v saline.
The scar tissues were lysed; then the protein samples were denatured and then separated on 10.6% polyacrylamide gels, and transferred to the polyvinylidene difluoride membrane. The membranes were incubated in TBS containing 5% nonfat milk and 0.05% Tween-20 for 1 h at room temperature and blotted with primary antibodies (dilution 1:300) at 4° C. overnight. The membranes were washed with TBST for 15 min the next day. Subsequently, the membranes were incubated with horseradish peroxidase-conjugated affinipure goat anti-rabbit antibody (dilution 1:3000) for 1 h at room temperature and washed with TBST for 21 min. The membranes were then detected using ECL. The western blot results were further analyzed with Quantity One software 4.1.1 (Bio-Rad, Hercules, Calif.)

Compound	anti-fibrosis effect on primary HSC (summary) (Mouse primary HSC)	Collagen-1 expression (Mouse primary HSC)	TGF-β expression (Mouse primary HSC)	TIMP-1 expression (Mouse primary HSC)	αSMA expression (Mouse primary HSC)	level of TGF-β1 expression (Western blot) (α-SMA and TGF-β1)	levels of α-SMA expression (Western blot) (α-SMA and TGF-β1)
CC(C)=CCOc1ccc(C2=C(CC(C)C)C(=O)NC2=O)cc1 [Compound B, 3-isobutyl-4-[4-(3-methyl-2-butenyloxy)phenyl]-1H-pyrrol-2,5-dione]	anti-fibrosis effect	dose-dependent effect	dose-dependent effect	dose-dependent effect	dose-dependent effect	significantly decreased	decreased
CC(C)=CCOc1ccc(C2=C(CC(C)C)C(=O)N(O)C2=O)cc1 [Compound C, 3-isobutyl-4-[4-(3-methyl-2-butenyloxy)phenyl]-1H-pyrrol-1-ol-2,5-dione]	anti-fibrosis effect	dose-dependent effect	dose-dependent effect	dose-dependent effect	dose-dependent effect	significantly decreased	decreased
